Test results reported in US9045445B2, “Glycine transporter-1 inhibitors, methods of making them, and uses thereof” (Albany Molecular Research, Inc., priority 2010, dated 2015).
Where a name gives a salt, the structure may show the parent alone.

molecular target: T1, glycine transporter-1 (GlyT-1) (Homo sapiens, UniProt P48067); experiment: [14C]glycine uptake assay in JAR cells endogenously expressing GlyT-1 (scintillation proximity); type: cell-based; conditions: JAR cells, [14C]glycine 5 μM, 3 hour incubation; read-out: GlyT-1 IC50
T1 construct: JAR cells (ATCC#HTB-144), which endogenously express GlyT-1; host or cells: JAR human choriocarcinoma cells
T1 sequence (P48067 1-706): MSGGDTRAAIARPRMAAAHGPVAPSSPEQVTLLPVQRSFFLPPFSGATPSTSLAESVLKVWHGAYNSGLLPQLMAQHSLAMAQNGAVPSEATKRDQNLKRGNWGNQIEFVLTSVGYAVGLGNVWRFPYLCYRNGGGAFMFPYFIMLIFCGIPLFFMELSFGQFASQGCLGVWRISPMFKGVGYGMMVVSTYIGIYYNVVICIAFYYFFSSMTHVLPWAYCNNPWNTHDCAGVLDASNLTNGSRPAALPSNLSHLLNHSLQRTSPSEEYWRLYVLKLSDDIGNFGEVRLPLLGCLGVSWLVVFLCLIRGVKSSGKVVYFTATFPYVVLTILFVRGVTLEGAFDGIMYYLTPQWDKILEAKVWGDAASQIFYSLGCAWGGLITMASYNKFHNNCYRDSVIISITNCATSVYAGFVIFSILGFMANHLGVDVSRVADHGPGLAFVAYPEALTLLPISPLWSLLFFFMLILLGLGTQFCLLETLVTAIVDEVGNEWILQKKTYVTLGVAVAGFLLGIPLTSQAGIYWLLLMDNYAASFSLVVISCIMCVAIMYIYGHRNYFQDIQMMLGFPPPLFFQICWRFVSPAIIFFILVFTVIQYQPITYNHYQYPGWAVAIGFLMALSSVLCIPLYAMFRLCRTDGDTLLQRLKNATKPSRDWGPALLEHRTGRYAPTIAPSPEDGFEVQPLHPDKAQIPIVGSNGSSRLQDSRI
Experimental: The inhibitory activity of compounds of the invention against the glycine transporter-1 (GlyT-1) can be determined by the following scintillation proximity assay. The potency of each compound was assessed in inhibiting the uptake of radiolabeled glycine ([^14C]glycine) using the human choriocarcinoma cell line, JAR cells (ATCC#HTB-144), which endogenously express GlyT-1. In brief, 50,000 JARS cells were plated per well of tissue culture treated 96-well Cytostar-T plate (PerkinElmer) in RPMI media supplemented with 10% heat inactivated FBS and allowed to attach overnight at 37° C. and 5% CO2. Compounds were serially diluted 3-fold in DMSO generating a nine (9) data point response curve for each compound. Two replicates were performed per determination. The compounds were then diluted into Uptake Buffer (10 mM Hepes, 120 mM NaCl, 2 mM KCl, 1 mM CaCl2 and 1 mM MgCl2, 5 mM Alanine, pH 7.4) with a final DMSO concentration of 0.75% (v/v). Following the overnight incubation, the media was replaced with Uptake Buffer in the presence or absence of diluted compound and pre-incubated at room temperature for 10 minutes prior to the addition of [^14C]glycine at a final concentration of 5 μM. Following a 3 hour incubation period at 37° C. and 5% CO2, the plates were sealed and placed at room temperature in the dark for 15 minutes prior to quantification of incorporated radioactivity using a MicroBeta Trilux scintillation plate reader (PerkinElmer). Data were fit into a four-parameter model to determine the inhibitor concentration at half-maximal response (IC50). The assay window was established by control wells incubated with [^14C]glycine in the presence or absence of 10 mM non-labeled glycine. A dose response curve for a synthesized reference standard was generated on every plate as a positive control.

| Structure (SMILES) | IC50 [nM] |
| --- | --- |
| CCCS(=O)(=O)N1CCN(C2(CNC(=O)c3c(F)cc(Cl)cc3Cl)CCC(F)(F)CC2)CC1 [compound 255, 2,4-Dichloro-N-((4,4-difluoro-1-(4-(propylsulfonyl)piperazin-1-yl)cyclohexyl)methyl)-6-Fluorobenzamide Hydrochloride] | 14 |
| CCCS(=O)(=O)N1CCN(C2(CNC(=O)c3c(F)cccc3F)CCCCC2)CC1 [compound 16, 2,6-Difluoro-N-((1-(4-(propylsulfonyl)piperazin-1-yl)cyclohexyl)methyl) benzamide Hydrochloride] | 23 |
| CCCS(=O)(=O)N1CCN(C2(CNC(=O)c3cccc(C)c3)CCCCC2)CC1 [compound 37, 3-Methyl-N-((1-(4-(propylsulfonyl)piperazin-1-yl)cyclohexyl)methyl) benzamide Hydrochloride] | 1140 |
| CCS(=O)(=O)N1CCN(C2(CNC(=O)c3c(F)cc(OC)cc3F)CCC(F)(F)CC2)CC1 [compound 216, N-((1-(4-(Ethylsulfonyl)piperazin-1-yl)-4,4-difluorocyclohexyl)methyl)-2,6-difluoro-4-methoxybenzamide Hydrochloride] | 1290 |
| CCCS(=O)(=O)N1CCN(C2(CNC(=O)c3c(F)cccc3F)CCCOCC2)CC1 (centres unmarked) [compound 268, 2,6-Difluoro-N-((4-(4-(propylsulfonyl)piperazin-1-yl)oxepan-4-yl)methyl)benzamide Hydrochloride] | 238 |
| CCCS(=O)(=O)N1CCN(C2(CNC(=O)c3c(Cl)cccc3Cl)CCCCC2)CC1 [compound 43, 2,6-Dichloro-N-((1-(4-(propylsulfonyl)piperazin-1-yl)cyclohexyl)methyl) benzamide Hydrochloride] | 12 |
| CCCS(=O)(=O)N1CCN(C2(CNC(=O)c3c(C)cccc3OC)CCCCC2)CC1 [compound 3, 2-Methoxy-6-methyl-N-((1-(4-(propylsulfonyl)piperazin-1-yl)cyclohexyl)methyl) benzamide Hydrochloride] | 541 |
| CC1CN(S(=O)(=O)c2cn(C)nn2)C(C)CN1C1(CNC(=O)c2ccc(C(F)(F)F)cc2C(F)(F)F)CCC(F)(F)CC1 (centres unmarked) [compound 237, N-((1-(2,5-Dimethyl-4-(1-methyl-1H-1,2,3-triazol-4-ylsulfonyl)piperazin-1-yl)-4,4-difluorocyclohexyl)methyl)-2,4-bis(trifluoromethyl) benzamide Hydrochloride] | 2 |
| CCS(=O)(=O)N1CCN(C2(CNC(=O)c3c(C)cc(C)cc3C)CCC(F)(F)CC2)CC1 [compound 217, N-((1-(4-(Ethylsulfonyl)piperazin-1-yl)-4,4-difluorocyclohexyl)methyl)-2,4,6-trimethylbenzamide Hydrochloride] | 216 |

Now from value to molecule:

| IC50 [nM] | Structure (SMILES) |
| --- | --- |
| 29 | Cn1cnc(S(=O)(=O)N2CCN(C3(CNC(=O)c4ccc(Cl)cc4F)CCC(F)(F)CC3)CC2)c1 [compound 165, 4-Chloro-N-((4,4-difluoro-1-(4-(1-methyl-1H-imidazol-4-ylsulfonyl)piperazin-1-yl)cyclohexyl)methyl)-2-fluorobenzamide Hydrochloride] |
| 7 | Cn1cc(S(=O)(=O)N2CCN(C3(CNC(=O)c4ccc(C(F)(F)F)cc4C(F)(F)F)CCOCC3)CC2)nn1 [compound 276, N-((4-(4-(1-Methyl-1H-1,2,3-triazol-4-ylsulfonyl)piperazin-1-yl)tetrahydro-2H-pyran-4-yl)methyl)-2,4-bis(trifluoromethyl) benzamide Hydrochloride] |
| 35 | CCCS(=O)(=O)N1CCN(C2(CNC(=O)c3c(F)cccc3OC(F)(F)F)CCC(F)(F)CC2)CC1 [compound 158, N-((4,4-Difluoro-1-(4-(propylsulfonyl)piperazin-1-yl)cyclohexyl)methyl)-2-fluoro-6-(trifluoro-methoxy)benzamide Hydrochloride] |
| 52 | CCCS(=O)(=O)N1CCN(C2(CNC(=O)c3ccc(F)cc3C)CCC(F)(F)CC2)CC1 [compound 145, N-((4,4-Difluoro-1-(4-(propylsulfonyl)piperazin-1-yl)cyclohexyl)methyl)-4-fluoro-2-methylbenzamide Hydrochloride] |
| 350 | O=C(NCC1(N2CCN(S(=O)(=O)N3CCC3)CC2)CCC(F)(F)CC1)c1ccc(C(F)(F)F)cc1Cl [compound 271, N-((1-(4-(azetidin-1-ylsulfonyl)piperazin-1-yl)-4,4difluorocyclohexyl)methyl)-2-chloro-4-(trifluoromethyl)benzamide Hydrochloride] |
| 38 | CCCS(=O)(=O)N1CCN(C2(CNC(=O)c3ccc(F)cc3Cl)CCC(F)(F)CC2)CC1 [compound 154, 2-Chloro-N-((4,4-difluoro-1-(4-(propylsulfonyl)piperazin-1-yl)cyclohexyl)methyl)-4-fluorobenzamide Hydrochloride] |
| 34 | CCCS(=O)(=O)N1CCN(C2(CNC(=O)c3c(Cl)cccc3OC)CCC(F)(F)CC2)CC1 [compound 152, 2-Chloro-N-((4,4-difluoro-1-(4-(propylsulfonyl)piperazin-1-yl)cyclohexyl)methyl)-6-methoxybenzamide Hydrochloride] |
| 223 | CCCS(=O)(=O)N1CCN(C2(CNC(=O)c3c(F)ccc(C(F)(F)F)c3F)CCC(F)(F)CC2)CC1 [compound 262, N-((4,4-Difluoro-1-(4-(propylsulfonyl)piperazin-1-yl)cyclohexyl)methyl)-2,6-difluoro-3-(trifluoromethyl)benzamide Hydrochloride] |
| 14 | Cn1cnc(S(=O)(=O)N2CCN(C3(CNC(=O)c4ccc(C(F)(F)F)cc4F)CCC(F)(F)CC3)CC2)c1 [compound 170, N-((4,4-Difluoro-1-(4-(1-methyl-1H-imidazol-4-ylsulfonyl)piperazin-1-yl)cyclohexyl)methyl)-2-fluoro-4-(trifluoromethyl)benzamide Hydrochloride] |
| 26 | CCCS(=O)(=O)N1CCN(C2(CNC(=O)c3c(C)cccc3Cl)CCC(F)(F)CC2)CC1 [compound 155, 2-Chloro-N-((4,4-difluoro-1-(4-(propylsulfonyl)piperazin-1-yl)cyclohexyl)methyl)-6-methylbenzamide Hydrochloride] |
| 987 | CCC(F)(F)S(=O)(=O)N1CCN(C2(CNC(=O)c3ccc(C(F)(F)F)cc3Cl)CCC(F)(F)CC2)CC1 [compound 251, 2-Chloro-N-((1-(4-(1,1-difluoropropylsulfonyl)piperazin-1-yl)-4,4-difluorocyclohexyl)methyl)-4-(trifluoromethyl) benzamide Hydrochloride] |
| 59 | CCCS(=O)(=O)N1CCN(C2(CNC(=O)c3c(Cl)cccc3C(F)(F)F)CCC(F)(F)CC2)CC1 [compound 157, 2-Chloro-N-((4,4-difluoro-1-(4-(propylsulfonyl)piperazin-1-yl)cyclohexyl)methyl)-6-(trifluoromethyl)benz-amide Hydrochloride] |
| 1 | Cn1cnc(S(=O)(=O)N2CCN(C3(CNC(=O)c4c(F)cccc4OC(F)(F)F)CCC(F)(F)CC3)CC2)c1 [compound 186, N-((4,4-Difluoro-1-(4-(1-methyl-1H-imidazol-4-ylsulfonyl)piperazin-1-yl)cyclohexyl)methyl)-2-fluoro-6-(trifluoromethoxy) benzamide Hydrochloride] |
| 291 | CCCS(=O)(=O)N1CCN(C2(CNC(=O)c3ccccc3F)CCC(F)(F)CC2)CC1 [compound 131, N-((4,4-Difluoro-1-(4-(propylsulfonyl)piperazin-1-yl)cyclohexyl)methyl)-2-fluorobenzamide Hydrochloride] |
